US9770026B2, “Substituted pyrimidine compound and uses thereof” (Shenyang Sinochem Agrochemicals R&D Co., Ltd., priority 2012, dated 2017)

Legend:
[1] = test system: cucumber gray mold; experiment: fungicidal activity in vitro (inhibition rate) against cucumber gray mold; assay type: cell-based; settings: 25 ppm, in vitro; read-out: inhibition rate against cucumber gray mold
[2] = test system: cucumber downy mildew; experiment: protectant activity in vivo against cucumber downy mildew; settings: Cucumis sativus, 168 h, protectant activity; for pest or weed control at 25 µg/mL: read-out: control effect against cucumber downy mildew (%), 25 mg/L; for pest or weed control at 50 µg/mL: read-out: control effect against cucumber downy mildew (%), 50 mg/L; for pest or weed control at 100 µg/mL: read-out: control effect against cucumber downy mildew (%), 100 mg/L; for pest or weed control at 400 µg/mL: read-out: control effect against cucumber downy mildew (%), 400 mg/L
[3] = test system: corn rust; experiment: protectant activity in vivo against corn rust; settings: Zea mays, 168 h, protectant activity; for pest or weed control at 6.25 µg/mL: read-out: control effect against corn rust (%), 6.25 mg/L; for pest or weed control at 25 µg/mL: read-out: control effect against corn rust (%), 25 mg/L; for pest or weed control at 100 µg/mL: read-out: control effect against corn rust (%), 100 mg/L; for pest or weed control at 400 µg/mL: read-out: control effect against corn rust (%), 400 mg/L
[4] = test system: Diamond back moth; experiment: insecticidal activity against diamond back moth, airbrush spray; assay type: in vivo; settings: 72 h, 600 mg/L
Method in brief: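 Airbrush leaf-disc spray test: both faces of 2 cm cabbage discs received 0.5 ml of test solution at 0.7 kg/cm^2. Solutions were made in acetone:methanol (1:1) and brought to concentration with 0.1% Tween 80 in water. Ten second-instar larvae per disc, triplicates, were held at 25° C and 60˜70% R.H., with mortality recorded at 72 hrs.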

[5] = test system: Green peach aphids (Myzus Persicae Sulzer); experiment: bioactivity test against green peach aphid, airbrush foliar spray; assay type: in vivo; settings: Myzus persicae, foliar, 48 h, contrastive test, read-out: Insecticidal activity against peach aphid (%); for pest or weed control at 600 µg/mL: 600 mg/L; for pest or weed control at 10 µg/mL: 10 mg/L; for pest or weed control at 100 µg/mL: 100 mg/L
Method in brief: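 Aphids (15-30 per cabbage leaf disc) on moist filter paper were airbrush-sprayed at 10 psi, 0.5 mL, with compound from acetone:methanol (1:1) diluted in water with 0.1% tween 80. Held at 25±1 C, 60±5% RH; survivors counted after 48 hrs to give death rates.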

[6] = test system: wheat powdery mildew; experiment: protectant activity in vivo against wheat powdery mildew; settings: Triticum aestivum, 168 h, protectant activity; for pest or weed control at 6.25 µg/mL: read-out: control effect against wheat powdery mildew (%), 6.25 mg/L; for pest or weed control at 25 µg/mL: read-out: control effect against wheat powdery mildew (%), 25 mg/L; for pest or weed control at 100 µg/mL: read-out: control effect against wheat powdery mildew (%), 100 mg/L; for pest or weed control at 400 µg/mL: read-out: control effect against wheat powdery mildew (%), 400 mg/L
[7] = test system: armyworm; experiment: bioactivity test against armyworm, airbrush spray; assay type: in vivo; settings: 72 h, read-out: Insecticidal activity against armyworm (%); for pest or weed control at 600 µg/mL: 600 mg/L; for pest or weed control at 10 µg/mL: 10 mg/L
[8] = test system: carmine spider mite; experiment: bioactivity test against carmine spider mite, airbrush spray; assay type: in vivo; settings: for pest or weed control at 10 µg/mL / pest or weed control at 100 µg/mL / pest or weed control at 600 µg/mL: Tetranychus cinnabarinus, 72 h, contrastive test, read-out: Insecticidal activity against carmine spider mite (% ); for pest or weed control at 10 µg/mL: 10 mg/L; for pest or weed control at 100 µg/mL: 100 mg/L; for pest or weed control at 600 µg/mL: 600 mg/L
Method in brief: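 Broadbean seedlings infested with adult mites were sprayed with compound (acetone/methanol stock diluted in 0.1% Tween 80 water) by airbrush at 0.7 kg/cm^2, 0.5 ml. Three replicates were run. Mortality was scored after 72 hrs.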

Compound | inhibition at 25 ppm [1] | pest or weed control at 25 µg/mL [2] | pest or weed control at 50 µg/mL [2] | pest or weed control at 100 µg/mL [2] | pest or weed control at 400 µg/mL [2] | pest or weed control at 6.25 µg/mL [3] | pest or weed control at 25 µg/mL [3] | pest or weed control at 100 µg/mL [3] | pest or weed control at 400 µg/mL [3] | pest or weed control at 600 µg/mL [4] | pest or weed control at 600 µg/mL [5] | pest or weed control at 6.25 µg/mL [6] | pest or weed control at 25 µg/mL [6] | pest or weed control at 100 µg/mL [6] | pest or weed control at 400 µg/mL [6] | pest or weed control at 600 µg/mL [7] | pest or weed control at 10 µg/mL [8] | pest or weed control at 600 µg/mL [8] | pest or weed control at 10 µg/mL [5] | pest or weed control at 100 µg/mL [5] | other results
Cc1ncnc(NCc2ccc(Oc3ccc(C(F)(F)F)cn3)cc2)c1Cl [CK22, reference compound] | 0% | 60% | 75% | 98% | 100% | 0% | 40% | 100% | 100% | 0% | 0% | 0% | 50% | 90% | 100% | 0% | – | – | – | – | –
CC(Cl)c1ncnc(NCCc2ccc(Oc3ccc(C(F)(F)F)cn3)cc2)c1Cl (centres unmarked) [CK24, reference compound] | < 50% | – | – | – | – | 0% | 20% | 50% | 100% | – | 100% | – | – | 0% | 0% | – | 85% | 100% | 89% | 100% | Insecticidal activity against carmine spider mite (% ) ([8]; 2.5 mg/L): 5%; Insecticidal activity against carmine spider mite (% ) ([8]; 5 mg/L): 15%; pest or weed control at 100 µg/mL [8]: 100%; pest or weed control at 2.5 µg/mL ([5]; 2.5 mg/L): 0%; pest or weed control at 5 µg/mL ([5]; 5 mg/L): 28%; pest or weed control at 10 µg/mL [7]: 0%
CCc1ncnc(OCc2ccc(Oc3ccc(Cl)cc3)nc2)c1Cl [CK25, reference compound] | < 50% | 0% | 0% | 0% | 100% | – | – | – | 0% | 0% | 0% | – | – | – | 0% | 0% | – | 0% | – | – | –
N#Cc1ccc(Oc2ccc(CCNc3nc(Cl)ncc3Cl)cc2)nc1 [CK26, reference compound] | 0% | 0% | 40% | 60% | 100% | 0% | 0% | 0% | 100% | 0% | 100% | – | – | – | 70% | 0% | – | 0% | 45% | 48% | –
COC(=O)c1nc(Cl)nc(NC(C)c2ccc(Oc3ncc(C(F)(F)F)cc3Cl)cc2)c1Cl (centres unmarked) [CK34, reference compound] | 0% | – | – | – | 85% | – | – | – | 0% | 0% | 65% | – | – | – | 0% | 0% | – | 0% | – | – | –
Cc1ncnc(NCc2ccc(Oc3ccc(C(F)(F)F)cc3)cc2)c1Cl [CK53, reference compound] | 0% | 60% | 85% | 90% | 100% | – | – | – | 0% | 0% | 84% | 0% | 0% | 80% | 100% | 0% | 12% | 100% | 34% | 66% | pest or weed control at 100 µg/mL [8]: 100%
CCc1ncnc(NC(=O)Cc2ccc(Oc3ccc(C(F)(F)F)cc3Cl)cc2)c1Cl [CK57, reference compound] | < 50% | – | – | – | 50% | – | – | – | 0% | 0% | 61% | – | – | – | 0% | 0% | – | 33% | – | – | –
FC(F)(F)c1ccc(Oc2ccc(CCNc3ncnc(Cl)c3Cl)cc2)nc1 [CK73, reference compound] | 0% | 60% | 95% | 98% | 98% | 0% | 10% | 90% | 100% | – | 100% | – | – | – | 40% | 100% | 24% | 100% | 0% | 100% | pest or weed control at 100 µg/mL [8]: 85%; pest or weed control at 10 µg/mL [7]: 0%; pest or weed control at 100 µg/mL ([7]; 100 mg/L): 50%
FC(F)(F)c1cccnc1Oc1ccc(CCNc2nc(Cl)ncc2Cl)cc1 [CK81, reference compound] | 0% | – | – | – | – | – | – | – | 80% | 0% | 75% | – | – | – | 40% | 14% | – | 0% | – | – | –
FC(F)(F)c1cccnc1Oc1ccc(CCNc2cc(Cl)nc(Cl)n2)cc1 [CK82, reference compound] | 0% | – | – | – | – | 0% | 0% | 30% | 100% | 17% | 86% | 0% | 0% | 80% | 100% | 0% | – | 23% | 0% | – | –
N#Cc1ccc(Oc2ccc(CCNc3cc(Cl)ncn3)cc2)nc1 [CK83, reference compound] | 0% | 85% | 98% | 100% | 100% | – | – | – | 30% | 17% | 100% | 40% | 70% | 100% | 100% | 29% | – | – | 11% | 100% | –
Cc1nc(Cl)cc(NCCc2ccc(Oc3ccc(C#N)cn3)cc2)n1 [CK84, reference compound] | 0% | 85% | 100% | 100% | 100% | 0% | 60% | 90% | 100% | 0% | 100% | – | – | – | – | 0% | 0% | 100% | 7% | 43% | pest or weed control at 100 µg/mL [8]: 0%
